Test results published in PMC5892457, “Characterisation of novel biomass degradation enzymes from the genome of Cellulomonas fimi” (Enzyme and Microbial Technology, 2018).

Target: T1, AfsA (Cellulomonas fimi, UniProt F4H166)
T1 construct: gene Celf_3321; full ORF as BioBrick, E. coli JM109 crude lysate, untagged
T1 sequence (F4H166 1-506): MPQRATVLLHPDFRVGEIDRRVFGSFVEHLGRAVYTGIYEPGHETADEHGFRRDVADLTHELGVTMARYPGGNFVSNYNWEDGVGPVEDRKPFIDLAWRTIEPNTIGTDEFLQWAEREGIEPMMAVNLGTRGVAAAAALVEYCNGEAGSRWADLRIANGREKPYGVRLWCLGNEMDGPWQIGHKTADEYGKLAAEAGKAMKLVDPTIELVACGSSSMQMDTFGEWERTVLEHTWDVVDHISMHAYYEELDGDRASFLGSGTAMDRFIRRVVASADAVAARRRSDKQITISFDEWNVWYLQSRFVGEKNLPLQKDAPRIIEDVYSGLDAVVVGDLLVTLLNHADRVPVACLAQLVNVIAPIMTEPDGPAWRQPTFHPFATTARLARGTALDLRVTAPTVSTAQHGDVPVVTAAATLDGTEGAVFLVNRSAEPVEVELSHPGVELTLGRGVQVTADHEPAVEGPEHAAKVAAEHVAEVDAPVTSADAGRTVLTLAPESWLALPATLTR
Assay: nitrophenol release at […] nm
Type: biochemical
Details: pH 5.0, 37 °C, E. coli lysate

SMILES	nitrophenol release at 405 nm
O=[N+]([O-])c1ccccc1O[C@@H]1OC[C@@H](O)[C@H](O)[C@H]1O [ONPX, 2-nitrophenyl β-D-xylopyranoside]	AfsA at this temperature and pH being more active with ONPX than PNPA
O=[N+]([O-])c1ccc(O[C@@H]2O[C@@H](CO)[C@H](O)[C@H]2O)cc1 [PNPA, 4-nitrophenyl α-L-arabinofuranoside]	AfsA and AfsB have both arabinofuranoisdase and xylosidase activities
